Test results as given in patent US20230024584A1, “ANTI-CANCER COMPOSITIONS AND METHODS” (University of Kentucky Research Foundation, priority 2019, published 2023).

Columns and labels:
Assay type in all cases: cell-based
[1] = test system: SUM159, LM2, MCF-7, 4T1, 4T1luc and MDA-MB-453 cells; test: Clonogenic assay, breast cancer cell lines; conditions: 1.25, 2.5 or 5 μM for 72 h, then 10 days culture
Protocol: Clonogenic assays were also performed to determine the effect of lomitapide treatment on various breast cancer cell lines, with data reflected in FIGS. 22A-22G. Initially, 100 SUM159, LM2, MCF-7, 4T1 or 4T1^luc cells, or 1000 MDA-MB-453 cells were seeded into 6-cm cell culture dishes. After overnight culture, vehicle control (DMSO) or lomitapide (final concentration: 1.25, 2.5 or 5 μM) were added into the corresponding dishes. After 72 h culture, the DMSO- or lomitapide-containing media were removed and the fresh culture media were added in followed by additional 10 days culture. The culture media were replaced with fresh media every three days. At the end of cell culture, the final clones in dishes were fixed by 4% paraformaldehyde and stained with crystal violet. FIG. 22A includes representative images from each treatment groups, and FIGS. 22B-22G include the quantitation of clone numbers (mean standard deviation, n=3). * p<0.05, compared to vehicle control (negative control) treatment group.

[2] = test system: SUM159, MCF-7 and MDA-MB-453 cells; test: Soft agar colony formation assay, breast cancer cell lines; conditions: 1.25, 2.5 or 5 μM, 1 month culture
Protocol: With reference to FIGS. 23A-23D, soft agar colony formation assays were also performed. Initially, 1000 SUM159 or MCF-7 cells, 10000 MDA-MB-453 cells were seeded into the upper agar of each dish; meanwhile, vehicle control (DMSO) or lomitapide (final concentration: 1.25, 2.5 or 5 μM) were added into the upper agar of corresponding dishes. After 1 month continuous culture, the final colonies formed in the agar were fixed by methanol and stained with crystal violet. FIG. 23A includes representative soft agar images from each treatment groups. FIGS. 23B-23D include the quantitation of soft agar clone numbers (mean standard deviation, n=3). * p<0.05, compared to vehicle control (negative control) treatment group.

[3] = test system: MCF-7, LM2 and 4T1luc cells; test: Apoptosis (7-AAD/APC-annexin V flow cytometry), breast cancer cells; conditions: 1.25, 2.5 or 5 μM, 48 h
Protocol: With reference to FIGS. 26A-26C, studies were also conducted to determine the effect of lomitapide treatment on apoptosis of breast cancer cells. Initially, 0.1-0.3 million MCF-7, LM2 or 4T1^luc cells were seeded into 6 cm cell culture dishes and cultured overnight. Vehicle control (DMSO) or lomitapide (final concentration: 1.25, 2.5 or 5 μM) was added then into corresponding dishes. After 48 h incubation, the cells were harvested, stained by 7-AAD/APC-annixin V and analyzed by flow cytometry. The results are presented as mean±standard deviation (n=3). * p<0.05, compared to vehicle control (negative control) treatment group.

[4] = test system: PC9, H1975, PC9GR4, H460 and A549 cells; test: MTT assay, lung cancer cell lines; conditions: 1.25, 2.5 and 5 μM; 24, 48, 72 h
Protocol: FIGS. 27A-27E include the results of studies to determine the effect of lomitapide treatment on lung cancer cell growth of various cell lines as determined by MTT assay. Initially, 1000 PC9, H1975, PC9GR4, H460, or A549 cells were seeded into 96-well plates. After overnight culture, vehicle (DMSO) or lomitapide (final concentration: 1.25, 2.5 and 5 μM) were added into the corresponding wells. After 24 h, 48 h and 72 h incubation, the culture media were aspirated off and 50 μL of 0.5 mg/mL of MTT containing medium was added into each well. After 3h incubation, 200 μl of DMSO were added into each well. The OD value of each well was read under the wavelength of 570 nm. The results are presented as mean±standard deviation (n=6) * p<0.05, compared to vehicle control (negative control) treatment group.

[5] = test system: H1975, PC9, PC9GR4 and H460 cells; test: Clonogenic assay, lung cancer cell lines; conditions: 1.25, 2.5 or 5 μM for 72 h, then 10 days culture
Protocol: (§1) Clonogenic assays were also performed to determine the effect of lomitapide treatment on various lung cancer cell lines, with data reflected in FIGS. 28A-28E. Initially, 100 H1975, PC9, PC9GR4, or H460 cells were seeded into 6-cm cell culture dishes. After overnight culture, vehicle control (DMSO) or lomitapide (final concentration: 1.25, 2.5 or 5 μM) were added into the corresponding dishes. After 72 h culture, the DMSO- or lomitapide-containing media were removed and the fresh culture media were added in followed by additional 10 days culture. The culture media were replaced with fresh media every three days. At the end of cell culture, the final clones in dishes were fixed by 4% paraformaldehyde and stained with crystal violet. FIG. 28A includes representative images from each treatment groups. FIGS. 28B-28E include quantitation of clone numbers (mean±standard deviation, n=3). * p<0.05, compared to vehicle control (negative control) treatment group.

[6] = test system: PC9GR4 and A549 cells; test: Sphere formation assay, lung cancer cells; conditions: 1.25, 2.5 or 5 μM, 10 days
Protocol: With reference to FIGS. 30A and 30B, studies were also conducted to determine the effect of lomitapide treatment on the cancer stem cell-like property of lung cancer cells. Initially, 2500 lung cancer PC9GR4 or A549 cells were seeded into […] 24-well plates; meanwhile, vehicle control (DMSO) or lomitapide (final concentration: 1.25, 2.5 or 5 μM) were added into corresponding wells. After 10-days continuous culture, the final spheres formed were imaged and counted under an inverted phase-contrast microscope. FIG. 30A includes representative sphere images from each treatment groups. FIG. 30B includes the quantitation of sphere numbers (mean±standard deviation, n=3). * p<0.05, compared to vehicle control (negative control) treatment group.

[7] = test system: DLD1, PT130 and SW480 cells; test: Clonogenic assay, colon cancer cell lines; conditions: 1.25, 2.5 or 5 μM for 72 h, then 10 days culture
Protocol: as §1, with “Initially,” for “Clonogenic assays were also performed to determine the effect of lomitapide treatment on various lung cancer cell lines, with data reflected in FIGS. 28A-28E. Initially,”, “DLD1, PT130” for “H1975, PC9, PC9GR4,”, “SW480” for “H460”, “32A” for “28A”, “32B-32D” for “28B-28E”

Substance: lomitapide
- breast cancer cell growth (clone numbers) [1]: significantly reduces breast cancer cell growth
- breast cancer cell growth (soft agar clone numbers) [2]: significantly reduces breast cancer cell growth
- apoptosis [3]: induces apoptosis
- lung cancer cell growth (MTT) [4]: significantly reduces lung cancer cell growth
- lung cancer cell growth (clone numbers) [5]: significantly reduces lung cancer cell growth
- cancer stem cell-like property (sphere numbers) [6]: significantly reduces cancer stem cell-like property
- colon cancer cell growth (clone numbers) [7]: significantly reduces colon cancer cell growth
